In data set [1] the test system is pY36 of ERβ in MDA-MB-231 cells. In words: pY36 of endogenous ERβ in MDA-MB-231 cells treated with ERβ agonists. It counts as cell-based. To be noted: agonists 10 nM, 2 hr (FIG. 19C).
The test system of data set [2] is p300 recruitment to ERβ target promoters MDA7 and MSMB. Kind of data set: p300 ChIP at ERβ target promoters in Hs578T cells. In kind it is cell-based. As to conditions: WT-ERβ-expressing Hs578T cells; E2 10 nM. As for the experimental part:
For ChIP experiments in the ERβ-inducible Hs578T cells, 100 ng/ml doxcycline was added for 24 hr. […] Cells were cross-linked with 1% formaldehyde for 10 min, treated with glycine at a final concentration of 0.125 M for 5 min at room temperature, and lysed in lysis buffer (5 mM HEPES pH 9.0, 85 mM KCl, 0.5% Triton X-100) for 15 min on ice. Nuclei were resuspended in nuclei lysis buffer (50 mM Tris-HCl pH 8.0, 10 mM EDTA, 1% SDS), and the cross-linked DNA was sonicated for 10 min (with a 30 s on/off cycle) using a Bioruptor sonicator (Diagenode). The supernatant was used for ChIP as previously described (Ding et al., Mol Cell., 2008, (31)347-59).

For data set [3] the following is noted: two completed and published clinical trials; cited from earlier work.
The next data set has as its target T1, p300 (UniProt Q09472 2-2414, limits assumed).
T1 construct: also called endogenous p300
Kind of data set: co-IP of Flag-ERβ with endogenous p300 in HEK293T cells.

The target in data set [4] is T2, ERβ pY36-containing peptide SIYIPSS(pY)VDSHHE.
T2 chain: SIYIPSSYVDSHHE

In another data set the target is T3, Flag-ERβ (WT).
T3 chain: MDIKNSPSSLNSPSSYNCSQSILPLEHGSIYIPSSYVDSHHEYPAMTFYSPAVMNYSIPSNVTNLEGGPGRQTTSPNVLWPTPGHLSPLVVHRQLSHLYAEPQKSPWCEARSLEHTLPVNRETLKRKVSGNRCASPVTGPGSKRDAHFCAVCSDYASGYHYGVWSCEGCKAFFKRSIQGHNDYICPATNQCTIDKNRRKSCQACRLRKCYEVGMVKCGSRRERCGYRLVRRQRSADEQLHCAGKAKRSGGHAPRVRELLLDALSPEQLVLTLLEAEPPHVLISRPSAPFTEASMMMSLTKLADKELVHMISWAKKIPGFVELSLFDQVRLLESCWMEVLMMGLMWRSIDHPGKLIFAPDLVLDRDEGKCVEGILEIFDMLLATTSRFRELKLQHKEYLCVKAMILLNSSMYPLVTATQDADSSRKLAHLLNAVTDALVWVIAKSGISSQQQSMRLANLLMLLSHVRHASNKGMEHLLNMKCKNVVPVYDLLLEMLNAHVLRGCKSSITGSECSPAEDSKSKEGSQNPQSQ

T1 sequence (Q09472 2-2414 limits assumed): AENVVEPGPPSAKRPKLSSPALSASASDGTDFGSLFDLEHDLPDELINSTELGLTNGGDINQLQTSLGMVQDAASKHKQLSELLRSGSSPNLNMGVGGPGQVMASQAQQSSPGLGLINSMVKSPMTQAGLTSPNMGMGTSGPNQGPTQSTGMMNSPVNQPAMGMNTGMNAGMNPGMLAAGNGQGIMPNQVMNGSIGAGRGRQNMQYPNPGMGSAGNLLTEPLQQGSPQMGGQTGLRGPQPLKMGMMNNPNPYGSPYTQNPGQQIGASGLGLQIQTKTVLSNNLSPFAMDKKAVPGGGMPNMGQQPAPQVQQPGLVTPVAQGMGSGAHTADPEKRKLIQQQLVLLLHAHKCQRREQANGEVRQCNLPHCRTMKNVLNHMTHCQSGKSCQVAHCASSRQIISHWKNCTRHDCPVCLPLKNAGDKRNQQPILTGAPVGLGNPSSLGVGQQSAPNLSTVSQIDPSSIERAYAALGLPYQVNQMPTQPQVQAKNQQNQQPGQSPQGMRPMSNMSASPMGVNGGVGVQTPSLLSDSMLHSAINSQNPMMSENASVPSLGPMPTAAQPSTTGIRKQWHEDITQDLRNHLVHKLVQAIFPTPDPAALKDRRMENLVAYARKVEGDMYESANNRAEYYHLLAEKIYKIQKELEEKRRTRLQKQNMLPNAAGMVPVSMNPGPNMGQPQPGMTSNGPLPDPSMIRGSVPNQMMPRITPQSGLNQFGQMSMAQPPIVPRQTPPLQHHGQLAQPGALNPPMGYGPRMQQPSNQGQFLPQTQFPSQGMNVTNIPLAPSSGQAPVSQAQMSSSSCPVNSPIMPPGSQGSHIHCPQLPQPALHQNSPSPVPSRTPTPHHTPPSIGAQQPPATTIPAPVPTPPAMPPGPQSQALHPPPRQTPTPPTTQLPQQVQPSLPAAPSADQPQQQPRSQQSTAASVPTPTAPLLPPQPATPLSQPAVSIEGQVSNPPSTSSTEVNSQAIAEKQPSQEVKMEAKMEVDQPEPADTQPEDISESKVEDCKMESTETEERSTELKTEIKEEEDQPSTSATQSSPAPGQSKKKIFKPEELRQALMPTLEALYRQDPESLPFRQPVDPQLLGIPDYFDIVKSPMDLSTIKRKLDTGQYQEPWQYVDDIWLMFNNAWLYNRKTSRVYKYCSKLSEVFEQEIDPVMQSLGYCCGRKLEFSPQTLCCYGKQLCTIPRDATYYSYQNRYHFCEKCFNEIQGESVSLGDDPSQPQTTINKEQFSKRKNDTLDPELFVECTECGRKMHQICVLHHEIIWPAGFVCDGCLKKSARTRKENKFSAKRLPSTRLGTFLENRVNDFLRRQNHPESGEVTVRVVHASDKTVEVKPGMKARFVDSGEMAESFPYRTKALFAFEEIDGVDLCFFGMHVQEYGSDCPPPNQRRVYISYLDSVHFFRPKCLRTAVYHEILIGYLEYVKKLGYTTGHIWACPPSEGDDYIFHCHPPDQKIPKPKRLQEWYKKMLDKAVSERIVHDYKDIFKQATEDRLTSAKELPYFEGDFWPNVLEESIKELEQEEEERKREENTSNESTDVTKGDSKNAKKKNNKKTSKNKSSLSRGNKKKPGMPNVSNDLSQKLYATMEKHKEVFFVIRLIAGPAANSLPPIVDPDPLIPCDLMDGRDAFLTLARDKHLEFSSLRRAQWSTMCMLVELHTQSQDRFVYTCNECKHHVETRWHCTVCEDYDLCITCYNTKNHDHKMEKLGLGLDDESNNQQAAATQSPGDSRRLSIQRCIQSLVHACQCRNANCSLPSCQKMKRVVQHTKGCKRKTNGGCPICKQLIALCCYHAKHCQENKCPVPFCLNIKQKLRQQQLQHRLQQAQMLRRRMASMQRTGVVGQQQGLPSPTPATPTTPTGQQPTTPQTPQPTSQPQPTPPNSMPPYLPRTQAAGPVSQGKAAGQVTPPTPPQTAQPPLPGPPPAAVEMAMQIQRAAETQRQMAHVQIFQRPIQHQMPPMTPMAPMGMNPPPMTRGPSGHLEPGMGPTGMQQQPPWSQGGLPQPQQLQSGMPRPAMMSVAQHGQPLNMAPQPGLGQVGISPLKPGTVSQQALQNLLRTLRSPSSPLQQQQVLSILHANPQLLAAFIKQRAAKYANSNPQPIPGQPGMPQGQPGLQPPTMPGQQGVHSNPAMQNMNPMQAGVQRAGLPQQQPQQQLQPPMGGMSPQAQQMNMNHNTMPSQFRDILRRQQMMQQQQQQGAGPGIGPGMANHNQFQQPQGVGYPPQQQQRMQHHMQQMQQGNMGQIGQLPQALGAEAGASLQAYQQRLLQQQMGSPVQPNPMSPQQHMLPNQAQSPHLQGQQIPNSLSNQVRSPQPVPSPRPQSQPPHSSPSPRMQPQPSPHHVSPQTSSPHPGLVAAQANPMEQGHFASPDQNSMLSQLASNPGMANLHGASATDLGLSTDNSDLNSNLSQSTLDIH

`N#CC(Cc1ccc(O)cc1)c1ccc(O)cc1` (stereo not drawn) [DPN, diarylpropionitrile]: the “ERβ phosphorylation (pY36)” value in data set [1] is on record as “enhanced”.
Turning to `C[C@]12CC[C@@H]3c4ccc(O)cc4CC[C@H]3[C@@H]1CC[C@@H]2O` [E2, 17-β-estradiol], the “recruitment of p300 to the ERβ target promoters” value in data set [2] is “stimulated cyclic recruitment of p300”. In addition, the “ERβ phosphorylation (pY36)” value in data set [1] was “enhanced”.
`Oc1ccc([C@H]2COc3cc(O)ccc3C2)cc1` [S-equol]: the “safety and drug tolerance” value in data set [3] is recorded as “has been demonstrated”. Besides, in data set [1], the “ERβ phosphorylation (pY36)” value is reported as “enhanced”.

B1: Flag-ERβ (WT) (receptor)
chain: MDIKNSPSSLNSPSSYNCSQSILPLEHGSIYIPSSYVDSHHEYPAMTFYSPAVMNYSIPSNVTNLEGGPGRQTTSPNVLWPTPGHLSPLVVHRQLSHLYAEPQKSPWCEARSLEHTLPVNRETLKRKVSGNRCASPVTGPGSKRDAHFCAVCSDYASGYHYGVWSCEGCKAFFKRSIQGHNDYICPATNQCTIDKNRRKSCQACRLRKCYEVGMVKCGSRRERCGYRLVRRQRSADEQLHCAGKAKRSGGHAPRVRELLLDALSPEQLVLTLLEAEPPHVLISRPSAPFTEASMMMSLTKLADKELVHMISWAKKIPGFVELSLFDQVRLLESCWMEVLMMGLMWRSIDHPGKLIFAPDLVLDRDEGKCVEGILEIFDMLLATTSRFRELKLQHKEYLCVKAMILLNSSMYPLVTATQDADSSRKLAHLLNAVTDALVWVIAKSGISSQQQSMRLANLLMLLSHVRHASNKGMEHLLNMKCKNVVPVYDLLLEMLNAHVLRGCKSSITGSECSPAEDSKSKEGSQNPQSQ
modifications: phosphotyrosine at 36 (pY36), as phosphorylated in HEK293T cells
notes: Expressed in HEK293T cells and immunoprecipitated by the Flag tag; also called WT-ERβ; Flag-tagged WT ERβ; not shown: Flag tag
B1: the binding result with p300 was “binds”.

B2: Flag-ERβ Y36E (receptor)
chain: MDIKNSPSSLNSPSSYNCSQSILPLEHGSIYIPSSEVDSHHEYPAMTFYSPAVMNYSIPSNVTNLEGGPGRQTTSPNVLWPTPGHLSPLVVHRQLSHLYAEPQKSPWCEARSLEHTLPVNRETLKRKVSGNRCASPVTGPGSKRDAHFCAVCSDYASGYHYGVWSCEGCKAFFKRSIQGHNDYICPATNQCTIDKNRRKSCQACRLRKCYEVGMVKCGSRRERCGYRLVRRQRSADEQLHCAGKAKRSGGHAPRVRELLLDALSPEQLVLTLLEAEPPHVLISRPSAPFTEASMMMSLTKLADKELVHMISWAKKIPGFVELSLFDQVRLLESCWMEVLMMGLMWRSIDHPGKLIFAPDLVLDRDEGKCVEGILEIFDMLLATTSRFRELKLQHKEYLCVKAMILLNSSMYPLVTATQDADSSRKLAHLLNAVTDALVWVIAKSGISSQQQSMRLANLLMLLSHVRHASNKGMEHLLNMKCKNVVPVYDLLLEMLNAHVLRGCKSSITGSECSPAEDSKSKEGSQNPQSQ
notes: Expressed in HEK293T cells; also called Y36E-ERβ; Y36E mutant; not shown: Flag tag
On to B2, for which the binding result with p300 was “binds”.

B3: GST-EYA2 (protein)
chain: MVELVISPSLTVNSDCLDKLKFNRADAAVWTLSDRQGITKSAPLRVSQLFSRSCPRVLPRQPSTAMAAYGQTQYSAGIQQATPYTAYPPPAQAYGIPSYSIKTEDSLNHSPGQSGFLSYGSSFSTSPTGQSPYTYQMHGTTGFYQGGNGLGNAAGFGSVHQDYPSYPGFPQSQYPQYYGSSYNPPYVPASSICPSPLSTSTYVLQEASHNVPNQSSESLAGEYNTHNGPSTPAKEGDTDRPHRASDGKLRGRSKRSSDPSPAGDNEIERVFVWDLDETIIIFHSLLTGTFASRYGKDTTTSVRIGLMMEEMIFNLADTHLFFNDLEDCDQIHVDDVSSDDNGQDLSTYNFSADGFHSSAPGANLCLGSGVHGGVDWMRKLAFRYRRVKEMYNTYKNNVGGLIGTPKRETWLQLRAELEALTDLWLTHSLKALNLINSRPNCVNVLVTTTQLIPALAKVLLYGLGSVFPIENIYSATKTGKESCFERIMQRFGRKAVYVVIGDGVEEEQGAKKHNMPFWRISCHADLEALRHALELEYL
As for B3, the “in vitro tyrosine phosphatase assay (release of free phosphate, Malachite Green)” value in data set [4] is listed as “A pY36-containing ERβ peptide that can be dephosphorylated efficiently by recombinant WT-EYA2”. In the data set with Flag-ERβ (WT), the “in vitro dephosphorylation of immunoprecipitated Flag-ERβ, pY36 immunoblot” value is listed as “recombinant WT, but not mutant EYA2 completely eliminated the pY36 signal of ERβ in vitro”.
